Assay results reported in BindingDB's records for doi:10.1021/jm00020a029 (Merck Research Laboratories, 1995).
Where a SMILES comes first, the peptide text is derived from it. [ ]: non-standard residue; d: D form. Phe(F5) = N[C@@H](Cc1c(F)c(F)c(F)c(F)c1F)C(=O)O; Phe(4-CH2NH2) = NCc1ccc(C[C@H](N)C(=O)O)cc1; Phe(4-NH2) = Nc1ccc(C[C@H](N)C(=O)O)cc1; Phe(4-F) = N[C@@H](Cc1ccc(F)cc1)C(=O)O; 2Nal = N[C@@H](Cc1ccc2ccccc2c1)C(=O)O; NMeR = CN[C@@H](CCCNC(=N)N)C(=O)O; hPhe = N[C@@H](CCc1ccccc1)C(=O)O; Cha = N[C@@H](CC1CCCCC1)C(=O)O; NMeL = CN[C@@H](CC(C)C)C(=O)O; NMeA = CN[C@@H](C)C(=O)O

Test: Evaluated for the activation of human thrombin receptor measured by platelet aggregation

SMILES	EC50
CC(C)C[C@H](NC(=O)[C@H](Cc1ccc(F)cc1)NC(=O)[C@H](C)N)C(=O)N[C@@H](CCCNC(=N)N)C(=O)N[C@@H](CCCNC(=N)N)C(N)=O [(S)-2-[(S)-2-((S)-2-Amino-propionylamino)-3-(4-fluoro-phenyl)-propionylamino]-4-methyl-pentanoic acid [(S)-1-((S)-1-carbamoyl-4-guanidino-butylcarbamoyl)-4-guanidino-butyl]-amide] (H-A[Phe(4-F)]LRR-NH2)	40 µM
COc1ccc(C[C@H](NC(=O)[C@H](C)N)C(=O)N[C@@H](CC(C)C)C(=O)N[C@@H](CC(C)C)C(=O)N[C@@H](CCCNC(=N)N)C(N)=O)cc1 [(S)-2-[(S)-2-((S)-2-Amino-propionylamino)-3-(4-methoxy-phenyl)-propionylamino]-4-methyl-pentanoic acid [(S)-1-((S)-1-carbamoyl-4-guanidino-butylcarbamoyl)-3-methyl-butyl]-amide] (H-AY(Me)LLR-NH2)	21.4 µM
CC(C)C[C@H](NC(=O)[C@H](CC(C)C)NC(=O)[C@H](CC1CCCCC1)NC(=O)[C@H](C)N)C(=O)N[C@@H](CCCNC(=N)N)C(N)=O [(S)-2-[(S)-2-((S)-2-Amino-propionylamino)-3-cyclohexyl-propionylamino]-4-methyl-pentanoic acid [(S)-1-((S)-1-carbamoyl-4-guanidino-butylcarbamoyl)-3-methyl-butyl]-amide] (H-A[Cha]LLR-NH2)	28 µM
CC(C)C[C@H](NC(=O)[C@H](CC(C)C)NC(=O)[C@H](Cc1ccc2ccccc2c1)NC(=O)[C@H](C)N)C(=O)N[C@@H](CCCNC(=N)N)C(N)=O [(S)-2-[(S)-2-((S)-2-Amino-propionylamino)-3-naphthalen-2-yl-propionylamino]-4-methyl-pentanoic acid [(S)-1-((S)-1-carbamoyl-4-guanidino-butylcarbamoyl)-3-methyl-butyl]-amide] (H-A[2Nal]LLR-NH2)	19 µM
CC(C)C[C@H](NC(=O)[C@H](CC(C)C)NC(=O)[C@H](Cc1c(F)c(F)c(F)c(F)c1F)NC(=O)[C@H](C)N)C(=O)N[C@@H](CCCNC(=N)N)C(N)=O [(S)-2-[(S)-2-((S)-2-Amino-propionylamino)-3-pentafluorophenyl-propionylamino]-4-methyl-pentanoic acid [(S)-1-((S)-1-carbamoyl-4-guanidino-butylcarbamoyl)-3-methyl-butyl]-amide] (H-A[Phe(F5)]LLR-NH2)	600 µM
CC(C)C[C@H](NC(=O)[C@H](Cc1ccccc1)NC(=O)[C@H](C)N)C(=O)N[C@@H](CC1CCCCC1)C(=O)N[C@@H](CCCNC(=N)N)C(N)=O [(S)-2-[(S)-2-((S)-2-Amino-propionylamino)-3-phenyl-propionylamino]-4-methyl-pentanoic acid [(S)-1-((S)-1-carbamoyl-4-guanidino-butylcarbamoyl)-2-cyclohexyl-ethyl]-amide] (H-AFL[Cha]R-NH2)	0.4 µM
CC(C)C[C@H](NC(=O)[C@H](CC(C)C)NC(=O)[C@H](Cc1ccccc1)NC(=O)[C@H](C)N)C(=O)N[C@@H](CCCNC(=N)N)C(N)=O [(S)-2-[(S)-2-((S)-2-Amino-propionylamino)-3-phenyl-propionylamino]-4-methyl-pentanoic acid [(S)-1-((S)-1-carbamoyl-4-guanidino-butylcarbamoyl)-3-methyl-butyl]-amide] (H-AFLLR-NH2)	0.8 µM
CC(C)C[C@H](NC(=O)[C@H](Cc1ccccc1)NC(=O)[C@H](C)N)C(=O)N(C)[C@@H](CC(C)C)C(=O)N[C@@H](CCCNC(=N)N)C(N)=O [(S)-2-[(S)-2-((S)-2-Amino-propionylamino)-3-phenyl-propionylamino]-4-methyl-pentanoic acid [(S)-1-((S)-1-carbamoyl-4-guanidino-butylcarbamoyl)-3-methyl-butyl]-methyl-amide] (H-AFL[NMeL]R-NH2)	260 µM
CC(C)C[C@H](NC(=O)[C@H](CC(C)C)NC(=O)[C@H](CCc1ccccc1)NC(=O)[C@H](C)N)C(=O)N[C@@H](CCCNC(=N)N)C(N)=O [(S)-2-[(S)-2-((S)-2-Amino-propionylamino)-4-phenyl-butyrylamino]-4-methyl-pentanoic acid [(S)-1-((S)-1-carbamoyl-4-guanidino-butylcarbamoyl)-3-methyl-butyl]-amide] (H-A[hPhe]LLR-NH2)	> 800 µM
CC(C)C[C@H](NC(=O)[C@H](CC(C)C)NC(=O)[C@H](Cc1ccccc1)NC(=O)[C@@H](N)CO)C(=O)N[C@@H](CCCNC(=N)N)C(=O)N[C@@H](CC(N)=O)C(N)=O [(S)-2-[(S)-2-((S)-2-{(S)-2-[(S)-2-((S)-2-Amino-3-hydroxy-propionylamino)-3-phenyl-propionylamino]-4-methyl-pentanoylamino}-4-methyl-pentanoylamino)-5-guanidino-pentanoylamino]-succinamide]	0.2 µM
CC(C)C[C@H](NC(=O)[C@H](CC(C)C)NC(=O)[C@H](Cc1ccc(N)cc1)NC(=O)[C@H](C)N)C(=O)N[C@@H](CCCNC(=N)N)C(N)=O [(S)-2-[(S)-3-(4-Amino-phenyl)-2-((S)-2-amino-propionylamino)-propionylamino]-4-methyl-pentanoic acid [(S)-1-((S)-1-carbamoyl-4-guanidino-butylcarbamoyl)-3-methyl-butyl]-amide] (H-A[Phe(4-NH2)]LLR-NH2)	235 µM
CC(C)C[C@H](NC(=O)[C@H](CC(C)C)NC(=O)[C@H](Cc1ccc(CN)cc1)NC(=O)[C@H](C)N)C(=O)N[C@@H](CCCNC(=N)N)C(N)=O [(S)-2-[(S)-3-(4-Aminomethyl-phenyl)-2-((S)-2-amino-propionylamino)-propionylamino]-4-methyl-pentanoic acid [(S)-1-((S)-1-carbamoyl-4-guanidino-butylcarbamoyl)-3-methyl-butyl]-amide] (H-A[Phe(4-CH2NH2)]LLR-NH2)	800 µM
CC(C)C[C@H](NC(=O)[C@H](CC(C)C)NC(=O)[C@H](Cc1ccccc1)N(C)C(=O)[C@@H](N)CO)C(=O)N[C@@H](CCCNC(=N)N)C(N)=O [(S)-2-{(S)-2-[((S)-2-Amino-3-hydroxy-propionyl)-methyl-amino]-3-phenyl-propionylamino}-4-methyl-pentanoic acid [(S)-1-((S)-1-carbamoyl-4-guanidino-butylcarbamoyl)-3-methyl-butyl]-amide]	> 800 µM
CC(C)C[C@H](NC(=O)[C@H](CC(C)C)NC(=O)[C@H](Cc1ccccc1)NC(=O)[C@@H](N)CO)C(N)=O [(S)-2-{(S)-2-[(S)-2-((S)-2-Amino-3-hydroxy-propionylamino)-3-phenyl-propionylamino]-4-methyl-pentanoylamino}-4-methyl-pentanoic acid amide] (H-SFLL-NH2)	185 µM
CC(C)C[C@H](NC(=O)[C@H](C)NC(=O)[C@H](Cc1ccccc1)NC(=O)[C@@H](N)CO)C(=O)N[C@@H](CCCNC(=N)N)C(N)=O [(S)-2-{(S)-2-[(S)-2-((S)-2-Amino-3-hydroxy-propionylamino)-3-phenyl-propionylamino]-propionylamino}-4-methyl-pentanoic acid ((S)-1-carbamoyl-4-guanidino-butyl)-amide] (H-SFALR-NH2)	1.3 µM
CC(C)C[C@H](NC(=O)[C@H](CCCNC(=N)N)NC(=O)[C@H](Cc1ccc(F)cc1)NC(=O)[C@H](C)N)C(=O)N[C@@H](CCCNC(=N)N)C(N)=O [(S)-2-{(S)-2-[(S)-2-((S)-2-Amino-propionylamino)-3-(4-fluoro-phenyl)-propionylamino]-5-guanidino-pentanoylamino}-4-methyl-pentanoic acid ((S)-1-carbamoyl-4-guanidino-butyl)-amide] (H-A[Phe(4-F)]RLR-NH2)	0.13 µM
CC(C)C[C@H](NC(=O)[C@H](Cc1ccccc1)NC(=O)[C@H](C)N)C(=O)N[C@@H](CC(C)C)C(=O)N(C)[C@@H](CCCNC(=N)N)C(N)=O [(S)-2-{(S)-2-[(S)-2-((S)-2-Amino-propionylamino)-3-phenyl-propionylamino]-4-methyl-pentanoylamino}-4-methyl-pentanoic acid ((S)-1-carbamoyl-4-guanidino-butyl)-methyl-amide] (H-AFLL[NMeR]-NH2)	800 µM
CC(C)C[C@H](NC(=O)[C@H](CC(C)C)NC(=O)[C@H](Cc1ccccc1)NC(=O)[C@@H](N)Cc1cnc[nH]1)C(=O)N[C@@H](CCCNC(=N)N)C(N)=O [(S)-2-{(S)-2-[(S)-2-Amino-3-(3H-imidazol-4-yl)-propionylamino]-3-phenyl-propionylamino}-4-methyl-pentanoic acid [(S)-1-((S)-1-carbamoyl-4-guanidino-butylcarbamoyl)-3-methyl-butyl]-amide] (H-HFLLR-NH2)	31 µM
CC(C)C[C@H](NC(=O)[C@H](CC(C)C)NC(=O)[C@H](Cc1ccccc1)NC(=O)[C@@H](N)Cc1ccc(O)cc1)C(=O)N[C@@H](CCCNC(=N)N)C(N)=O [(S)-2-{(S)-2-[(S)-2-Amino-3-(4-hydroxy-phenyl)-propionylamino]-3-phenyl-propionylamino}-4-methyl-pentanoic acid [(S)-1-((S)-1-carbamoyl-4-guanidino-butylcarbamoyl)-3-methyl-butyl]-amide] (H-YFLLR-NH2)	400 µM
CC(C)C[C@H](NC(=O)[C@H](CC(C)C)N(C)C(=O)[C@H](Cc1ccccc1)NC(=O)[C@@H](N)CO)C(=O)N[C@@H](CCCNC(=N)N)C(N)=O [(S)-2-{[(S)-2-((S)-2-Amino-3-hydroxy-propionylamino)-3-phenyl-propionyl]-methyl-amino}-4-methyl-pentanoic acid [(S)-1-((S)-1-carbamoyl-4-guanidino-butylcarbamoyl)-3-methyl-butyl]-amide]	350 µM
CC(C)C[C@H](NC(=O)[C@H](CC(C)C)NC(=O)[C@H](Cc1ccccc1)NC(=O)[C@@H](N)CC(=O)O)C(=O)N[C@@H](CCCNC(=N)N)C(N)=O [(S)-3-Amino-N-((S)-1-{(S)-1-[(S)-1-((S)-1-carbamoyl-4-guanidino-butylcarbamoyl)-3-methyl-butylcarbamoyl]-3-methyl-butylcarbamoyl}-2-phenyl-ethyl)-succinamic acid] (H-DFLLR-NH2)	> 800 µM
CN[C@@H](C)C(=O)N[C@@H](Cc1ccccc1)C(=O)N[C@@H](CC(C)C)C(=O)N[C@@H](CC(C)C)C(=O)N[C@@H](CCCNC(=N)N)C(N)=O [(S)-4-Methyl-2-[(S)-2-((S)-2-methylamino-propionylamino)-3-phenyl-propionylamino]-pentanoic acid [(S)-1-((S)-1-carbamoyl-4-guanidino-butylcarbamoyl)-3-methyl-butyl]-amide] (H-[NMeA]FLLR-NH2)	600 µM
